We go through four compounds from US9422267B2, “Fused pyrimidine compounds and use thereof” (Medivation Technologies, Inc., priority 2012, dated 2016).

The test system of assay [1] is HCT-116. In words: Cell Titer-Glo cell viability: HCT-116. The class given is cell-based. As to conditions: Homo sapiens, HCT116, colon carcinoma. The procedure:
(§1) This assay quantitates the ATP present in order to determine the number of viable cells in culture. Briefly, the compounds were incubated with the cells for 72 h, followed by cell lysis. The resulting luminescent signal is proportional to the amount of ATP present and, therefore, directly proportional to the number of cells present in culture.
(§2) Compound nos. […] These cell lines are derived from human lung carcinoma, colon adenocarcinoma, colon adenocarcinoma, colon carcinoma, acute promyelocytic leukemia, colon adenocarcinoma, colon adenocarcinoma (from metastatic site lymph node), respectively.
(§3) Compounds 2b, 5, 6b and 10a were tested along with derivatives in viability assays as described above by Caliper LifeSciences Systems (Hanover, Md.), in A549, HCT-15, HCT-116, MCF-7, MDA-MB-231, OVCAR3, T47D, COLO205, HT-29, BT-20, HCC1187, HL-60, MDA-MB-175, SW-620, and UACC812 cells.
(ATP-based viability assays read luminescence as a measure of living cells.)

Assay [2] relates to MDA MB 175. In words: Cell Titer-Glo cell viability: MDA MB 175. Format: cell-based. The method, then: (§4) Compound nos. […] This panel of cell lines includes an ER− breast carcinoma, primary breast ductal carcinoma, prostate adenocarcinoma, mammary adenocarcinoma, mammary ductal carcinoma, mammary ductal carcinoma, ovary adenocarcinoma, ER+ breast carcinoma, ER-HER2+ mammary ductal carcinoma and an ER+ mammary ductal carcinoma, respectively.
as §1, §3
The inhibitory effects of Compound 8a were tested in two cell lines.

The test system of assay [3] is OVCAR-3. In words: Cell Titer-Glo cell viability: OVCAR-3. The class given is cell-based. The note with it: Homo sapiens, OVCAR3, ovarian cancer. The procedure:
as §4, §1, §3

Assay [4] concerns the target FAK2(PTK2b) (Homo sapiens, UniProt Q14289). In words: Caliper kinase assay: FAK2(PTK2b). As to conditions: for inhibition of FAK2 in panel of 11 kinases: 0.01 μM.
Experimental: (§5) The compound was tested at concentrations of 1.0×10^−8 and 1.0×10^−9 M in the RapidKinase192™ panel in duplicate. […] The screening was performed using the Caliper EZReader2, a 4-sipper LabChip, and ProfilerPro Kinase Selectivity Assay Kits 1 and 2. The assay measures the conversion of a fluorescent peptide substrate to a phosphorylated product. Briefly, the reaction mixture was introduced through a capillary sipper onto the microfluidic chip, where the substrate and product were electrophoretically separated and detected by laser-induced fluorescence. The time-dependent fluorescence signal indicates the extent of the reaction.
(§6) The kinases tested were AurA, AurB, AurC, AXL, FAK2, IGF1R, InsR, Mer, MET, TrkB and TrkC.
(§7) The assays were conducted using the Caliper LabChip 3000 and a 12-sipper LabChip as described above.
Assay [5] deals with HCC 1187. In words: Cell Titer-Glo cell viability: HCC 1187. The class given is cell-based. As to conditions: Homo sapiens. The procedure:
as §4, §1, §3

The target in assay [6] is NTRK2 (TRKB) (Homo sapiens, UniProt Q16620). The assay is described as follows: Caliper kinase profiling: NTRK2 (TRKB). As to conditions: for inhibition of TrkB in panel of 11 kinases: 0.01 μM; for inhibition at 0.01 µM: read-out: Average % Inh @ 10 nM.
Experimental: as §5, §6, §7
Assay [7] concerns T47D. In words: Cell Titer-Glo cell viability: T47D. The class given is cell-based. The note with it: Homo sapiens, breast cancer. The procedure:
as §4, §1, §3

Assay [8] deals with HT-29. The assay is described as follows: Cell Titer-Glo cell viability: HT-29. Format: cell-based. The note with it: Homo sapiens, HT-29, 72 h. The procedure:
as §1, §2, §3

For assay [9], the system named is COLO 205. In words: Cell Titer-Glo cell viability: COLO 205. The class given is cell-based. As to conditions: Homo sapiens, COLO 205, 72 h. The method, then:
as §1, §2, §3

The target of assay [10] is T1, MET (Homo sapiens, UniProt P08581).
T1 construct: purchased Caliper LifeSciences (ProfilerPro Kinase Selectivity Assay Kits)
In words: Caliper kinase profiling: MET. As to conditions: for inhibition at 0.01 µM: 10 nM, read-out: Average % Inh @ 10 nM. Format: biochemical.

The target in assay [11] is T2, ROS(ROS1) (Homo sapiens, UniProt P08922).
T2 construct: purchased Caliper LifeSciences (ProfilerPro Kinase Selectivity Assay Kits)
The assay is described as follows: Caliper kinase profiling: ROS(ROS1). Format: biochemical. As to conditions: for inhibition at 0.01 µM: 10 nM, read-out: Average % Inh @ 10 nM. From the text:
ROS1 is a proto-oncogene and is highly expressed in many cancers.

The target of assay [12] is IGF1R (Homo sapiens, UniProt P08069). The assay is described as follows: Caliper kinase profiling: IGF1R. Further details: purchased Caliper LifeSciences (ProfilerPro Kinase Selectivity Assay Kits). The note with it: for inhibition at 0.01 µM: 10 nM, read-out: Average % Inh @ 10 nM. The class given is biochemical.
Experimental: as §5
Assay [13] addresses T3, AurC (Homo sapiens, UniProt Q9UQB9).
T3 sequence (Q9UQB9 1-309): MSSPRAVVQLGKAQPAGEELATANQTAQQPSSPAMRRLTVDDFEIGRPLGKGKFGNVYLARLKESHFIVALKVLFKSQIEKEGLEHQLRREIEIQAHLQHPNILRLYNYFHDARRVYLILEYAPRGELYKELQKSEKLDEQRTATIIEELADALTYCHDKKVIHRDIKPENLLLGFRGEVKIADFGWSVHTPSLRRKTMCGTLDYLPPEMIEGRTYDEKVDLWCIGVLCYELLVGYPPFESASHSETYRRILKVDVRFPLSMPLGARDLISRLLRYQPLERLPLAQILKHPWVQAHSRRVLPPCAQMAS
In words: Caliper kinase profiling: AurC.
Experimental: as §5, §7

The target in assay [14] is T4, AurA (Homo sapiens, UniProt O14965).
T4 sequence (O14965 1-403): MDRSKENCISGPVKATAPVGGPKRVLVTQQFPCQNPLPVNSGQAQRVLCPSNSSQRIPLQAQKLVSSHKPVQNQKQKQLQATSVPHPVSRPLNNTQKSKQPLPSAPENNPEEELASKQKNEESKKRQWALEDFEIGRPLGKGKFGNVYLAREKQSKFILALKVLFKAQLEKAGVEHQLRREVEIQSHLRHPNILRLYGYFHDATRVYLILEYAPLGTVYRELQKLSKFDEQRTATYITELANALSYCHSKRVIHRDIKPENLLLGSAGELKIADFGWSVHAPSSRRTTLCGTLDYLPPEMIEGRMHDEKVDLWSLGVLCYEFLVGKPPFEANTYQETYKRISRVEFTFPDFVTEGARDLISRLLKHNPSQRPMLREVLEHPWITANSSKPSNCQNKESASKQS
In words: Caliper kinase profiling: AurA.
Experimental: as §5, §7

Assay [15] addresses AurB (Homo sapiens, UniProt Q96GD4). The assay is described as follows: Caliper kinase profiling: AurB.
Experimental: as §5, §7
The target of assay [16] is T5, PYK2 (Homo sapiens, UniProt Q14289).
T5 construct: purchased Caliper LifeSciences (ProfilerPro Kinase Selectivity Assay Kits)
In words: Caliper kinase profiling: PYK2. The class given is biochemical. The note with it: for inhibition at 0.01 µM: PYK2, 10 nM, read-out: Average % Inh @ 10 nM.

Assay [17] deals with T6, INSR (Homo sapiens, UniProt P06213).
T6 construct: purchased Caliper LifeSciences (ProfilerPro Kinase Selectivity Assay Kits)
The assay is described as follows: Caliper kinase profiling: INSR. Format: biochemical. As to conditions: for inhibition at 0.01 µM: 10 nM, read-out: Average % Inh @ 10 nM.
Experimental: as §5

Where [18] appears, read: 72 h incubation, Cell Titer-Glo.
Where [19] appears, read: MDA-MB-175, breast cancer, 72 h incubation, Cell Titer-Glo.
[20] abbreviates: HCC1187, HCC-1187, breast cancer, 72 h incubation, Cell Titer-Glo.
The mark [21] stands for this setting: HT-29, colon adenocarcinoma, 72 h incubation, Cell Titer-Glo.
[22] abbreviates: COLO205, colon cancer, 72 h incubation, Cell Titer-Glo.
Setting [23] is: 100 nM, read-out: Average % Inh @ 100 nM.
The mark [24] stands for this setting: 1 μM, read-out: Average % Inh @ 1 μM.
Where [25] appears, read: read-out: Average % Inh @ 10 nM.
[26] abbreviates: read-out: Average % Inh @ 100 nM.
Where [27] appears, read: COLO-205, colon adenocarcinoma, 72 h.
Setting [28] is: 1 nM, read-out: Average % Inh @ 1 nM.

Structures are written as SMILES.

IGF1R, sequence (P08069 31-1367): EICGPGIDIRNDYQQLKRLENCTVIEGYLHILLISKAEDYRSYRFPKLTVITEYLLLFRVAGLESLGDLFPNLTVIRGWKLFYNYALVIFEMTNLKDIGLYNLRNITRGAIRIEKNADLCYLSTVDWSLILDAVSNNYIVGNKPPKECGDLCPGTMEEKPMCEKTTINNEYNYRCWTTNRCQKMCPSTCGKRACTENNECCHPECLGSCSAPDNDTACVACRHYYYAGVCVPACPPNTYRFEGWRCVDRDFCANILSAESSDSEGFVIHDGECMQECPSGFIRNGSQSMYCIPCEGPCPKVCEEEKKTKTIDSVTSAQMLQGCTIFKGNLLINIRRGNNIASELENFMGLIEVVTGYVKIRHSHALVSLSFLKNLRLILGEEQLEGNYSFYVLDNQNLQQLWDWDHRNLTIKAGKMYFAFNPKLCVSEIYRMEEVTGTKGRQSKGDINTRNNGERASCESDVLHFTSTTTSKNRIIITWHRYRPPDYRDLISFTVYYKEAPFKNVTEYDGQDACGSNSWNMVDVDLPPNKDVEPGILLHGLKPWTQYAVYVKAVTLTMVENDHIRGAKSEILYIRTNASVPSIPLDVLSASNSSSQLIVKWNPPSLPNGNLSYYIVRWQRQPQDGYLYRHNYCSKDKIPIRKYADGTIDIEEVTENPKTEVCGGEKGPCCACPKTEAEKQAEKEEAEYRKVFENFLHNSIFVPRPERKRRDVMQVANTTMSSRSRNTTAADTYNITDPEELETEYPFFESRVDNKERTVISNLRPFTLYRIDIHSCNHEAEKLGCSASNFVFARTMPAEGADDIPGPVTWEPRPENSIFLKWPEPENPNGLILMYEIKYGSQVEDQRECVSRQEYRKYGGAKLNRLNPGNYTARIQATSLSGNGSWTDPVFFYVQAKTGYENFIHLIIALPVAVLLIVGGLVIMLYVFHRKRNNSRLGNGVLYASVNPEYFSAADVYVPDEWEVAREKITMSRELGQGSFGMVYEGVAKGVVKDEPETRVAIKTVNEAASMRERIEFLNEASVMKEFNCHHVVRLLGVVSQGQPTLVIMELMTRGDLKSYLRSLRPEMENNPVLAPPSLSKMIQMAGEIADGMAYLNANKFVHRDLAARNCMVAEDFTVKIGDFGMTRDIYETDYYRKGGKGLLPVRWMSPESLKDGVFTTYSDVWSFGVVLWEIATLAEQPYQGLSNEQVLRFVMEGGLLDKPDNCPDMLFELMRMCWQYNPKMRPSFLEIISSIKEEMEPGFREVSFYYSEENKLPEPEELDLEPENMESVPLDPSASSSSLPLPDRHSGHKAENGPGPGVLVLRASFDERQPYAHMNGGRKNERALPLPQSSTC
AurB, sequence (Q96GD4 whole entry): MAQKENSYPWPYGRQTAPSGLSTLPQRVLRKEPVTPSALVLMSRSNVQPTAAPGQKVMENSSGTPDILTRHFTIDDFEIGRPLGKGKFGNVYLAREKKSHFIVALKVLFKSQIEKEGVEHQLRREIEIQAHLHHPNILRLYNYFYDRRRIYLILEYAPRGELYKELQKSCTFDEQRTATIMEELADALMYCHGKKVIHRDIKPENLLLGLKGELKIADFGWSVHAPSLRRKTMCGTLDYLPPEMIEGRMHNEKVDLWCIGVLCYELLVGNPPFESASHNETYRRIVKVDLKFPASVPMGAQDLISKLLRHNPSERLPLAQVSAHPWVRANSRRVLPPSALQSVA
T1 sequence (P08581 25-1390): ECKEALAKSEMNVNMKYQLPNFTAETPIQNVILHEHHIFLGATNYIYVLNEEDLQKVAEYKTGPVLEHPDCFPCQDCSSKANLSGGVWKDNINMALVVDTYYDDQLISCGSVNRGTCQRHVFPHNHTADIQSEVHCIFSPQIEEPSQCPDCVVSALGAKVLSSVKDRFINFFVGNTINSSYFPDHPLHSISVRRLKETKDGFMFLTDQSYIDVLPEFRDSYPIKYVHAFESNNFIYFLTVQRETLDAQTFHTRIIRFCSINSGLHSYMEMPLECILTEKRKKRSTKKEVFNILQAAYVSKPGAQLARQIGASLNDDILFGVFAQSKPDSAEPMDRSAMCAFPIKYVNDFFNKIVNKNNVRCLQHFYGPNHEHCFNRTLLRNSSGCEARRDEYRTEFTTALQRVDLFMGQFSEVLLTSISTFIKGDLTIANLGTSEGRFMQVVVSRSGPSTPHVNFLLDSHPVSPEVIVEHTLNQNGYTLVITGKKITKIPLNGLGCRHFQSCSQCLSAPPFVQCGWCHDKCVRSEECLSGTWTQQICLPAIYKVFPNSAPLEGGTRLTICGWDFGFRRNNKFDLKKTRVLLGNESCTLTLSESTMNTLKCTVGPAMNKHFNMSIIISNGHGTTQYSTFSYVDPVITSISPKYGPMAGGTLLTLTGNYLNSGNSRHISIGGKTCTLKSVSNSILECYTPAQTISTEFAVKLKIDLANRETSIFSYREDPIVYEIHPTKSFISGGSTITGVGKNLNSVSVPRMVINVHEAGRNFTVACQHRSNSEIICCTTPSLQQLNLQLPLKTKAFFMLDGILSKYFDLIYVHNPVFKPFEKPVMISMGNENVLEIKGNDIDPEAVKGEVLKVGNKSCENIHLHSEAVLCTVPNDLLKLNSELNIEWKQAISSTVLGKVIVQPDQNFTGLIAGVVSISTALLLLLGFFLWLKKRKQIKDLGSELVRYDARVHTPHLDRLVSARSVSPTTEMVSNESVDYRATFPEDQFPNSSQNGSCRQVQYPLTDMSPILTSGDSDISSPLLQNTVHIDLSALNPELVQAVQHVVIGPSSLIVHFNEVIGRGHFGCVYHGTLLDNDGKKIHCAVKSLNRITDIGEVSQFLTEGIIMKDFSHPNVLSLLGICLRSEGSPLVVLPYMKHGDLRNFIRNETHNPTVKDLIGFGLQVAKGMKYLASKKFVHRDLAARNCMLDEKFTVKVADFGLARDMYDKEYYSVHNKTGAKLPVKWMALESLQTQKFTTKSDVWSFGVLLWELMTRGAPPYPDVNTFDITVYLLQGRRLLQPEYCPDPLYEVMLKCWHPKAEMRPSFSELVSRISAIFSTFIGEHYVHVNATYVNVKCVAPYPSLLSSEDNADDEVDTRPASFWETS
T5 sequence (Q14289 whole entry): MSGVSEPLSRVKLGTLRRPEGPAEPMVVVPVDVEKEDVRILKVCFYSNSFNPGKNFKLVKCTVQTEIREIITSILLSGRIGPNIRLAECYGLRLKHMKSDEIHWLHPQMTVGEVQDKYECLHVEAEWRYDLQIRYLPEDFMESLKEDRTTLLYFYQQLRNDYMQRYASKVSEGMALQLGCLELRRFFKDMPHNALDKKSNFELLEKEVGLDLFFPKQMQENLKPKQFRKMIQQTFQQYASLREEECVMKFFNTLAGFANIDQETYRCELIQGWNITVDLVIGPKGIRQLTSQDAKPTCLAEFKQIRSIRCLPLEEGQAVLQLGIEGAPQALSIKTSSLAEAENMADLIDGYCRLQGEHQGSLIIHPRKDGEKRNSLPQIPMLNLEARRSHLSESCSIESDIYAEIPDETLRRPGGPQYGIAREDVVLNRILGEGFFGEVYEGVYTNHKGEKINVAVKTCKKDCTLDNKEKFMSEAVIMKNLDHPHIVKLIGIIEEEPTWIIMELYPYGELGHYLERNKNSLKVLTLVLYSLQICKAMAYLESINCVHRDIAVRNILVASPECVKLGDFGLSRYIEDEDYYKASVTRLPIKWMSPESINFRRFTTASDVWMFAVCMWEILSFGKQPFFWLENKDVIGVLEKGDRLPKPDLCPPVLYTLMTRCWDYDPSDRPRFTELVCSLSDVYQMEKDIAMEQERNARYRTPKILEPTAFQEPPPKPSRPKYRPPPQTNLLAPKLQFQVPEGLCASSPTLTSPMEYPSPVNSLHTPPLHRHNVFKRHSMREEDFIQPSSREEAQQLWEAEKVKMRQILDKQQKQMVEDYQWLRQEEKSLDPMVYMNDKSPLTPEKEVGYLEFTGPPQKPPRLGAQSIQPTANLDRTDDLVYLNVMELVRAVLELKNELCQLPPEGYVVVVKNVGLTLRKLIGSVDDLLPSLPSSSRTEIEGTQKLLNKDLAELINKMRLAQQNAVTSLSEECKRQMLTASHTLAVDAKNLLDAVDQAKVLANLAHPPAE
FAK2(PTK2b), sequence (Q14289 whole entry): as above
NTRK2 (TRKB), sequence (Q16620 32-822): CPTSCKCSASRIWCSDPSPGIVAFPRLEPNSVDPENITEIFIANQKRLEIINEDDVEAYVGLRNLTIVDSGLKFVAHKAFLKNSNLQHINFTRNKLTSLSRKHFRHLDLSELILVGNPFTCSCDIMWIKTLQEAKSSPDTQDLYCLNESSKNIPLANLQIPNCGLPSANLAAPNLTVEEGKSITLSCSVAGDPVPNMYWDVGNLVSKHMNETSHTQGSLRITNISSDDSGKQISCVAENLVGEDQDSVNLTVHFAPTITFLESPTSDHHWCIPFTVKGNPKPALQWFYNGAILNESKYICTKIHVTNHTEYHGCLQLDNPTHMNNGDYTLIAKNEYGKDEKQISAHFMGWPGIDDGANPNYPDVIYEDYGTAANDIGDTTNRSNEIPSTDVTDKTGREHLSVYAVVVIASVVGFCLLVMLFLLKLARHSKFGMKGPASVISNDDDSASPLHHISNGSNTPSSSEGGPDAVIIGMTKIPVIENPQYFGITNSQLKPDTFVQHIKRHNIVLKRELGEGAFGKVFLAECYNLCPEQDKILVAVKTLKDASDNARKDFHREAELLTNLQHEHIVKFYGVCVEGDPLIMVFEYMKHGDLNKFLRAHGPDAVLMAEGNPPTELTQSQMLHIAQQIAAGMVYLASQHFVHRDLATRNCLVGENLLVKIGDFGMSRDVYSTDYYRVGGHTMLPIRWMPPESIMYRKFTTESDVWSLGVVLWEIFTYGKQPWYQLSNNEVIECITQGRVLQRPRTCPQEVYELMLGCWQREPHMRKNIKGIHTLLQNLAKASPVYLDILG

For `O=C(Nc1ccc(F)nc1)C1CCN1c1nc2c(c(Nc3cc(C4CC4)[nH]n3)n1)CCC2` (racemic) [Compound 5, 1-(4-(5-cyclopropyl-1H-pyrazol-3-ylamino)-6,7-dihydro-5H-cyclopenta[d]pyrimidin-2-yl)-N-(6-fluoropyridin-3-yl)azetidine-2-carboxamide], the IC50 (commonly the concentration that gives 50% inhibition) was below 10000 nM in assay [1] (setting [18]); 1000 nM in assay [2] (setting [19]); below 1000 nM in assay [3] (setting [18]); below 1000 nM in assay [5] (setting [20]); below 1000 nM in assay [7] (setting [18]); 10 nM in assay [8] (setting [21]). In addition, in [9] (setting [22]), the midpoint of inhibition, the IC50, lay at 100 nM. Moreover, the “inhibition of FAK2 in panel of 11 kinases” value in assay [4] is reported as “strongly inhibited”. For the same compound, the “inhibition of TrkB in panel of 11 kinases” value in [6] is “strongly inhibited”.

As for `O=C(Nc1ccc(F)nc1)C1CCCN1c1nc2c(c(Nc3cc(C4CC4)[nH]n3)n1)CCC2` (single isomer, unassigned) [Compound 2b, 1-(4-(5-cyclopropyl-1H-pyrazol-3-ylamino)-6,7-dihydro-5H-cyclopenta[d]pyrimidin-2-yl)-N-(6-fluoropyridin-3-yl)pyrrolidine-2-carboxamide], the inhibition at 0.01 µM in assay [10] is below 39%; in assay [11] (ROS (ROS1)) it was above 60%; in [12], below 39%; in assay [13] (setting [25]), above 60%; in assay [14] (setting [25]) it was below 39%; in assay [6], above 60%. Also, the inhibition at 0.01 µM in [15] (setting [25]) was 40 to 59%; in [16], below 39%; in assay [17], below 39%. Further, the inhibition at 0.1 µM in assay [10] (setting [23]) was above 60%; in [11] (ROS (ROS1), 100 nM, read-out: Average % Inh @ 100 nM), above 60%; in assay [12] (setting [23]) it was 40 to 59%; in assay [13] (setting [26]), above 60%; in assay [14] (setting [26]) it was above 60%; in assay [6] (setting [26]) it was above 60%. Moreover, the inhibition at 0.1 µM in assay [15] (setting [26]) is above 60%; in [16] (PYK2, 100 nM, read-out: Average % Inh @ 100 nM), above 60%; in assay [17] (setting [23]), above 60%. Besides, the inhibition at 1 µM in assay [10] (setting [24]) was above 60%; in assay [11] (ROS (ROS1), 1 μM, read-out: Average % Inh @ 1 μM), above 60%; in assay [12] (setting [24]) it was above 60%; in assay [13] (read-out: Average % Inh @ 1 μM) it was above 60%; in assay [14] (read-out: Average % Inh @ 1 μM), above 60%; in assay [6] (read-out: Average % Inh @ 1 μM), above 60%. Besides, the inhibition at 1 µM in assay [15] (read-out: Average % Inh @ 1 μM) was above 60%; in assay [16] (PYK2, 1 μM, read-out: Average % Inh @ 1 μM) it was above 60%; in assay [17] (setting [24]), above 60%. The IC50 in assay [2] (setting [19]) was below 10000 nM; in assay [3] (setting [18]), below 1000 nM; in assay [5] (setting [20]), 100 nM; in [7] (setting [18]), 1000 nM; in [8] (HT-29, colon cancer, 72 h), 500 nM; in [9] (setting [22]), below 100 nM. Also, the IC50 in assay [9] (setting [27]) is below 10 nM.

Take `O=C(Nc1cnccn1)C1CCCN1c1nc2c(c(Nc3cc(C4CC4)[nH]n3)n1)CCC2` (single isomer, unassigned) [Compound 6b]: the 50% inhibitory concentration (IC50) was below 1000 nM in [1] (setting [18]); below 1000 nM in assay [2] (setting [19]); below 100 nM in assay [3] (setting [18]); below 1000 nM in [5] (setting [20]); below 1000 nM in [7] (setting [18]); below 10 nM in [8] (setting [21]). In assay [9] (setting [22]), this compound showed an IC50 below 100 nM. In addition, the “inhibition of FAK2 in panel of 11 kinases” value in [4] was “strongly inhibited”. In assay [6], the “inhibition of TrkB in panel of 11 kinases” value is recorded as “strongly inhibited”.

In the case of `CC(C)c1cc(Nc2nc(N3CCCC3C(=O)Nc3ccc(F)nc3)nc3c2CCC3)n[nH]1` (single isomer, unassigned) [Compound 8b], the inhibition at 0.001 µM is below 39% in assay [10] (setting [28]); 40 to 59% in assay [11] (ROS (ROS1), 1 nM, read-out: Average % Inh @ 1 nM); below 39% in [12] (setting [28]); above 60% in assay [6] (read-out: Average % Inh @ 1 nM); below 39% in [16] (PYK2, 1 nM, read-out: Average % Inh @ 1 nM); 40 to 59% in assay [17] (setting [28]). In addition, the inhibition at 0.01 µM is 40 to 59% in [10]; above 60% in assay [11] (ROS (ROS1)); above 60% in [12]; above 60% in assay [6]; 40 to 59% in [16]; above 60% in [17]. Also, the IC50 in [1] (72 h) was 1000 nM; in assay [11] (ROS1, range of concentrations from 0.03 nM to 1), 15 nM; in assay [2] (MDAMB175, breast cancer, 72 h), below 10000 nM; in [3] (72 h) it was 1000 nM; in [4], 2.36 nM; in [13], 41.4 nM. The IC50 in assay [14] was 132 nM; in [5] (HCC1187, breast cancer, 72 h), below 10000 nM; in assay [6], 12.2 nM; in [7] (72 h), below 1000 nM; in assay [15] it was 74.7 nM; in assay [8] (HT29, colon adenocarcinoma (second entry of the table), 72 h), below 10 nM. Moreover, the IC50 in [8] (HT-29, colon cancer, 72 h) was below 10 nM; in [9] (setting [27]), below 10 nM.
